From patent publication US11981655B1, “3-(4,5-diphenyl-2-(pyridin-3-yl)-1H-imidazol-1-yl)-N,N-dimethylpropan-1-amine as an anticancer compound” (KING FAISAL UNIVERSITY, priority 2023, dated 2024)

Legend:
[1] = system: human osteosarcoma cells (MG-63); experiment: Cytotoxicity by SRB assay, MG-63 cells; type: cell-based; details: 72 h, 0.01 μM to 100 μM
Description: (§1) The human prostate cancer cells (PC3) and human osteosarcoma cells (MG-63) were obtained from Nawah Scientific Inc. (Mokatam, Cairo, Egypt) and cultured in DMEM (Dulbecco's modified eagle's medium), Gibco, USA, supplemented with fetal bovine serum (FBS) at a concentration of 10% and 100 U/mL of penicillin and streptomycin (PS). The Cells were incubated at 37° C. in a humidified environment that contained 5% CO2.
(§2) Cells were seeded in 96-well plates as aliquots of 100 μL cell suspension and incubated in a complete media for 24 h. Afterward, cells were treated with 2-(1-(2-hydroxypropyl)-4,5-diphenyl-1H-imidazol-2-yl)pyridine at diverse concentrations ranging from 0.01 μM to 100 μM for 72 h. Then, cells were fixed at 4° C. for one hour with 150 μL of 10% trichloroacetic acid (TCA). After washing the cells five times with distilled water, 70 μL of sulforhodamine (SRB) solution (0.4% w/v) was added and incubated for 10 min at room temperature in a dark place. […] Then, 150 μL of Tris pH 10.5 (10 mM) was added, and the absorbance was measured at 540 nm using a BMG LABTECH®-FLUOstar Omega microplate reader (Ortenberg, Germany). Half maximal inhibitory concentrations (IC50) values were calculated for each experiment using GraphPad Prism 6 software. […]
(§3) The inhibition was calculated using the following equation: Inhibition %=100−Average Viability

[2] = system: human prostate cancer cells (PC3); experiment: Cytotoxicity by SRB assay, PC3 cells; type: cell-based; details: 72 h, 0.01 μM to 100 μM
Description: as §1, §2, §3

- melting point: 145 to 147 °C
SMILES: CN(C)CCCn1c(-c2cccnc2)nc(-c2ccccc2)c1-c1ccccc1 [3-(4,5-Diphenyl-2-(pyridin-3-yl)-1H-imidazol-1-yl)-N,N-dimethylpropan-1-amine]
- antiproliferative activity [1]: excellent antiproliferative activities
- antiproliferative activity [2]: excellent antiproliferative activities
